pEC50: −log10 of the molar value. Where two headings read alike, the source gives them in different places.
What was measured:
Assay type in all cases: cell-based
Influenza A/WSN/33 virus = assay: Influenza antiviral assay (real-time PCR); conditions: A549 cells, 24 hour pre-incubation, 72 hours, read-out: Percent Inhibition
RSV A2 = assay: RSV RT-PCR based assay; conditions: human respiratory syncytial virus
Experimental: RT-PCR based assays were performed in HEp-2 cells (ATCC: CCL-23) at a concentration of 20000 cell/well were plated in 96 well plates and incubated overnight. Each of the test compounds were ⅓ serially diluted and dosed to HEp-2 cells in duplicates. The highest final concentration for each compound was 100 uM. After 24 hour compound pre-incubation, RSV A2 (ATCC: VR-1540) at MOI of 0.1 was added. Two wells per compound were set aside as uninfected, untreated cell controls (CC), and four wells per test compound received virus only as a control for virus replication (VC). The assay was stopped 4 days after virus infection and conditioned media was removed for viral RNA isolation. The quantities of the RSV virus were measured by real-time PCR using a set of RSV specific primers and probe. The data was analyzed with Prism software with EC50 defined as drug concentration that reduced the viral load 50% from the viral control (VC).
(§1) Compounds of Formula (I) and Formula (II) are active in the assay as noted in Tables 2 and 3, where ‘A’ indicates an EC50<1 μM, ‘B’ indicates an EC50 of >1 μM and <10 μM, ‘C’ indicates an EC50>10 μM and <100 μM, and ‘D’ indicates an EC50>100 μM.

RSV Long strain = assay: RSV CPE reduction assay; conditions: human respiratory syncytial virus
Experimental: CPE reduction assays were performed as described by Sidwell and Huffman et al., Appl Microbiol. (1971) 22(5):797-801 with slight modifications. HEp-2 cells (ATCC) at a concentration of 6000 cell/well were infected with RSV Long strain (ATCC) at a multiplicity of infection (m.o.i.) of 0.01, and each of the test compounds were provided to duplicate wells at final concentrations starting from 100 μM using ⅓ stepwise dilutions. For each compound, two wells were set aside as uninfected, untreated cell controls (CC), and two wells per test compound received virus only as a control for virus replication (VC). […] At the end of the incubation, 20 μl of cell counting kit-8 reagent (CCK-8, Dojindo Molecular Technologies, Inc.) were added to each well. After 4 hour incubation, the absorbance was measured in each well according to manufacturer's instruction, and the 50% effective concentration (EC50) was calculated by using regression analysis, based on the mean O.D. at each concentration of compound.
as §1

[1] = RT-PCR assay, HEp-2 cells, 24 hour compound pre-incubation, RSV A2 at MOI 0.1, 4 days after infection, viral load, read-out: EC50
[2] = 144 h, CPE assay, HEp-2 cells infected with RSV Long strain, m.o.i. 0.01, 6 days, CCK-8 readout, read-out: EC50

`[N-]=[N+]=N[C@]1(CO)O[C@@H](n2cnc3c(N)ncnc32)[C@H](F)[C@@H]1O` [Compound 28, 4′-azido-2′-deoxy-2′-fluoroadenosine] was tested, and the inhibition at 30 µM (Influenza A/WSN/33 virus) was 94.6%, the pEC50 (RSV A2; [1]) was < 4.00 and the pEC50 (RSV Long strain; [2]) was < 4.00.
`CC(C)OC(=O)[C@H](C)NP(=O)(OC[C@@]1(N=[N+]=[N-])O[C@@H](n2ccc(=O)[nH]c2=O)C(F)(F)[C@@H]1O)Oc1ccccc1` (stereo partly drawn) [Compound 19, 4′-azido-2′-deoxy-2′,2′-difluorouridine 5′-(O-phenyl-N—(S)-1-(isopropoxycarbonyl)ethyl)phosphoramidate] was tested, and the pEC50 (RSV A2; [1]) was < 4.00 and the pEC50 (RSV Long strain; [2]) was < 4.00.
In the case of `CC(C)OC(=O)[C@H](C)NP(=O)(OC[C@@]1(N=[N+]=[N-])O[C@@H](n2ccc(=O)[nH]c2=O)[C@H](O)[C@@H]1O)Oc1ccccc1` (stereo partly drawn) [Compound 21, 4′-azidouridine 5′-(O-phenyl-N—(S)-1-(isopropoxycarbonyl)eth-1-yl)phosphoramidate], the pEC50 (RSV A2; [1]) was > 6.00 and the pEC50 (RSV Long strain; [2]) was > 6.00.
With `CC(C)OC(=O)[C@H](C)NP(=O)(OC[C@@]1(N=[N+]=[N-])O[C@@H](n2ccc(N)nc2=O)[C@H](O)[C@@H]1O)Oc1ccccc1` (stereo partly drawn) [Compound 22, 4′-azidocytidine 5′-(O-phenyl-N—(S)-1-(isopropoxycarbonyl)ethyl)phosphoramidate] the pEC50 (RSV A2; [1]) was > 6.00 and the pEC50 (RSV Long strain; [2]) was > 6.00.
For `CC(C)OC(=O)[C@H](C)NP(=S)(OC[C@@]1(N=[N+]=[N-])O[C@@H](n2ccc(=O)[nH]c2=O)[C@H](O)[C@@H]1O)Oc1ccccc1` (stereo partly drawn) [Compound 15, 4′-azidouridine 5′-(O-phenyl-N—(S)-1-(isopropoxycarbonyl)eth-1-yl)thiophosphoramidate], the pEC50 (RSV A2; HEp-2) was > 6.00 and the pEC50 (RSV Long strain; HEp-2, 144 h) was > 6.00.
With `[N-]=[N+]=N[C@]1(CO)O[C@@H](n2ccc(=O)[nH]c2=O)[C@H](F)[C@@H]1O` [Compound 17, 4′-azido-2′-deoxy-2′-fluorouridine] the pEC50 (RSV A2; [1]) was < 4.00 and the pEC50 (RSV Long strain; [2]) was < 4.00.
With `[N-]=[N+]=N[C@]1(CO)O[C@@H](n2cnc3c(=O)[nH]c(N)nc32)C(F)(F)[C@@H]1O` [Compound 30, 4′-azido-2′-deoxy-2′,2′-difluoroguanosine] the inhibition at 30 µM (Influenza A/WSN/33 virus) was 99.9% and the pEC50 (RSV A2; [1]) was < 4.00.
`[N-]=[N+]=N[C@]1(CO)O[C@@H](n2ccc(N)nc2=O)[C@H](O)[C@@H]1O` [Compound 7, 4′-azidocytidine] showed a pEC50 (RSV A2; [1]) of 5.00 to 6.00 and a pEC50 (RSV Long strain; [2]) of 4.00 to 5.00.
`CC(C)OC(=O)[C@H](C)NP(=O)(OC[C@@]1(N=[N+]=[N-])O[C@@H](n2cnc3c(N)ncnc32)[C@H](F)[C@@H]1O)Oc1ccccc1` (stereo partly drawn) [Compound 37, 4′-azido-2′-deoxy-2′-fluoroadenosine 5′-(O-phenyl-N—(S)-1-(isopropoxycarbonyl)ethyl)phosphoramidate] showed a pEC50 (RSV A2; [1]) of 5.00 to 6.00 and a pEC50 (RSV Long strain; [2]) of 5.00 to 6.00.
In the case of `CC(C)OC(=O)[C@H](C)NP(=O)(OC[C@@]1(N=[N+]=[N-])O[C@@H](n2ccc(N)nc2=O)[C@H](F)[C@@H]1O)Oc1ccccc1` (stereo partly drawn) [Compound 23, 4′-azido-2′-deoxy-2′-fluorocytidine 5′-(O-phenyl-N—(S)-1-(isopropoxycarbonyl)ethyl)phosphoramidate], the pEC50 (RSV A2; [1]) was 5.00 to 6.00 and the pEC50 (RSV Long strain; [2]) was 5.00 to 6.00.
In the case of `CC(C)OC(=O)[C@H](C)NP(=O)(OC[C@@]1(N=[N+]=[N-])O[C@@H](n2ccc(=O)[nH]c2=O)[C@H](F)[C@@H]1O)Oc1ccccc1` (stereo partly drawn) [Compound 24, 4′-azido-2′-deoxy-2′-fluorouridine 5′-(O-phenyl-N—(S)-1-(isopropoxycarbonyl)ethyl)phosphoramidate], the pEC50 (RSV A2; [1]) was < 4.00 and the pEC50 (RSV Long strain; [2]) was < 4.00.
With `CC(C)OP1(=S)OC[C@@]2(N=[N+]=[N-])O[C@@H](n3ccc(N)nc3=O)[C@H](F)[C@@H]2O1` (stereo partly drawn) [Compound 46, 4′-azido-2′-deoxy-2′-fluorocytidine 3′,5′-cyclic thiophosphoric acid isopropyl ester] the pEC50 (RSV A2; HEp-2) was < 4.00 and the pEC50 (RSV Long strain; HEp-2, 144 h) was < 4.00.
For `COc1nc(N)nc2c1ncn2[C@@H]1O[C@@](CO)(N=[N+]=[N-])[C@@H](O)[C@H]1F` [Compound 48, 2-amino-9-(4-aido-2-deoxy-2-fluoro-1-ribofuranosyl)-6-methoxypurine], the pEC50 (RSV A2; [1]) was > 6.00 and the pEC50 (RSV Long strain; [2]) was 5.00 to 6.00.

— US8877731B2, “Azido nucleosides and nucleotide analogs” (Alios Biopharma, Inc., priority 2010, dated 2014)
